{"source": "paper PMC6220894", "about": "(Food and chemical toxicology : an international journal …, 2018)", "key": {"[1]": {"system": "Salmonella typhimurium TA 1535", "type": "cell-based", "conditions": "pre-incubation"}, "[2]": {"system": "Salmonella typhimurium TA 100", "type": "cell-based", "conditions": "plate incorporation"}, "[3]": {"system": "Salmonella typhimurium TA 1535", "type": "cell-based", "conditions": "plate incorporation"}, "[4]": {"system": "Salmonella typhimurium TA 100", "type": "cell-based", "conditions": "pre-incubation"}, "[5]": {"system": "Salmonella typhimurium TA 98", "assay": "Ames bacterial reverse mutation assay, pre-incubation method", "type": "cell-based"}, "[6]": {"system": "Salmonella typhimurium TA 102", "assay": "Ames bacterial reverse mutation assay, pre-incubation method", "type": "cell-based"}, "[7]": {"system": "Salmonella typhimurium TA 1537", "assay": "Ames bacterial reverse mutation assay, pre-incubation method", "type": "cell-based"}, "[8]": {"system": "Salmonella typhimurium TA 102", "assay": "Ames bacterial reverse mutation assay, plate incorporation method", "type": "cell-based"}, "[9]": {"system": "Salmonella typhimurium TA 98", "assay": "Ames bacterial reverse mutation assay, plate incorporation method", "type": "cell-based"}, "[10]": {"system": "Salmonella typhimurium TA 1537", "assay": "Ames bacterial reverse mutation assay, plate incorporation method", "type": "cell-based"}, "[11]": {"assay": "in vitro", "conditions": "both, human, plasma, pH 7.4"}, "[12]": {"system": "plasma protein", "conditions": "human plasma; 1 µM; mean ± SE"}, "[13]": {"conditions": "−S9, positive control 0.01 mg/plate"}, "[14]": {"conditions": "+S9, positive control 0.0025 mg/plate"}, "[15]": {"conditions": "+S9, positive control 0.01 mg/plate"}, "[16]": {"conditions": "−S9, positive control 4 µL/plate"}, "[17]": {"conditions": "−S9, positive control 0.05 mg/plate"}}, "note": "Like-named read-outs stand apart in the source and are kept apart here."}
{"molecule": "[N-]=[N+]=[N-].[Na+]", "note": "[sodium azide, reference compound]", "values": [{"measurement": "Mean plate counts (revertant colonies)", "setting": "[1]; [13]", "result": "974.7±41.1"}, {"measurement": "Mean plate counts (revertant colonies)", "setting": "[2]; [13]", "result": "870.7±39.3"}, {"measurement": "Mean plate counts (revertant colonies)", "setting": "[3]; [13]", "result": "966.7±12.2"}, {"measurement": "Mean plate counts (revertant colonies)", "setting": "[4]; [13]", "result": "1181.3±50.6"}]}
{"molecule": "Nc1ccc2cc3ccccc3cc2c1", "note": "[2-aminoanthracene, reference compound]", "values": [{"measurement": "Mean plate counts (revertant colonies)", "setting": "[5]; [14]", "result": "958.0±83.6"}, {"measurement": "Mean plate counts (revertant colonies)", "setting": "[1]; [14]", "result": "132.7±9.9"}, {"measurement": "Mean plate counts (revertant colonies)", "setting": "[2]; [14]", "result": "1042.0±61.3"}, {"measurement": "Mean plate counts (revertant colonies)", "setting": "[6]; [15]", "result": "1395.3±153.1"}, {"measurement": "Mean plate counts (revertant colonies)", "setting": "[7]; [14]", "result": "125.0±5.0"}, {"measurement": "Mean plate counts (revertant colonies)", "setting": "[8]; [15]", "result": "1716.7±134.6"}, {"measurement": "Mean plate counts (revertant colonies)", "setting": "[3]; [14]", "result": "150.0±12.5"}, {"measurement": "Mean plate counts (revertant colonies)", "setting": "[9]; [14]", "result": "741.3±63.8"}, {"measurement": "Mean plate counts (revertant colonies)", "setting": "[4]; [14]", "result": "1118.0±42.6"}, {"measurement": "Mean plate counts (revertant colonies)", "setting": "[10]; [14]", "result": "133.3±8.1"}]}
{"molecule": "COS(C)(=O)=O", "note": "[methyl methanesulphonate, methyl methanesulfonate, reference compound]", "values": [{"measurement": "Mean plate counts (revertant colonies)", "setting": "[6]; [16]", "result": "1238.7±126.0"}, {"measurement": "Mean plate counts (revertant colonies)", "setting": "[8]; [16]", "result": "2510.7±123.6"}]}
{"molecule": "CC(=O)CC(c1ccccc1)c1c(O)c2ccccc2oc1=O", "note": "(stereo not shown) [Warfarin, reference compound]", "values": [{"measurement": "fraction unbound at 4 h, 1 µM", "setting": "[11]", "result": "0.035 ± 0.003"}]}
{"molecule": "Nc1ccc([N+](=O)[O-])cc1N", "note": "[4-NOPD, 4-nitro-o-phenylenediamine, reference compound]", "values": [{"measurement": "Mean plate counts (revertant colonies)", "setting": "[5]; [13]", "result": "674.0±34.7"}, {"measurement": "Mean plate counts (revertant colonies)", "setting": "[7]; [17]", "result": "120.0±12.0"}, {"measurement": "Mean plate counts (revertant colonies)", "setting": "[9]; [13]", "result": "296.0±8.0"}, {"measurement": "Mean plate counts (revertant colonies)", "setting": "[10]; [17]", "result": "107.0±6.2"}]}
{"molecule": "COc1ccc(CCN(C)CCCC(C#N)(c2ccc(OC)c(OC)c2)C(C)C)cc1OC", "note": "(stereo not shown) [Verapamil, reference compound]", "values": [{"measurement": "fb (bound fraction)", "setting": "[12]", "result": "0.907 ± 0.007"}]}
